± gives the uncertainty stated by the source.
Tested on: OVCAR8
Assay: cancer cell viability relative to untreated control; higher = less cytotoxic
Conditions: 72 h
Procedure: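 KURAMOCHI or OVCAR8 cells were grown in monoculture or in co-culture with WI38 or patient-derived 030F fibroblasts and treated for 72 h with a dose matrix of carboplatin combined with birinapant or vorinostat (doses in nM). Cancer cell viability was measured by CK8/18 immunofluorescence imaging and expressed as % of untreated control, given as mean with SD.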

O=C(O)C1(C(=O)O)CCC1.[NH2-].[NH2-].[Pt+2] [Carboplatin] + O=C(CCCCCCC(=O)Nc1ccccc1)NO [Vorinostat]
cancer cell viability [%]
Conditions	partner drug concentration 0 nM	partner drug concentration 1 nM	partner drug concentration 10 nM	partner drug concentration 100 nM	partner drug concentration 1000 nM	partner drug concentration 10000 nM
carboplatin concentration 10 nM, co-cultured fibroblast: 030F	95.9 ± 6	98.7 ± 15	97.7 ± 14	61.9 ± 40	16.7 ± 16	1.47 ± 1.9
carboplatin concentration 10 nM, co-cultured fibroblast: WI38	112 ± 7.4	95.4 ± 13	93.8 ± 14	57.2 ± 39	13 ± 16	-0.353 ± 1.1
carboplatin concentration 10 nM, co-cultured fibroblast: none (monoculture)	100 ± 1.8	118 ± 40	106 ± 46	77.6 ± 58	12.5 ± 21	-1.11 ± 5.8
carboplatin concentration 100 nM, co-cultured fibroblast: 030F	97.7 ± 8.1	88.3 ± 30	82.6 ± 14	53.7 ± 39	17.5 ± 13	0.669 ± 1
carboplatin concentration 100 nM, co-cultured fibroblast: WI38	103 ± 7.5	98.1 ± 13	88.4 ± 12	53.3 ± 45	11.5 ± 13	-0.268 ± 1.1
carboplatin concentration 100 nM, co-cultured fibroblast: none (monoculture)	101 ± 7.5	108 ± 30	109 ± 53	58.4 ± 53	20.6 ± 33	-0.748 ± 5.1
carboplatin concentration 1000 nM, co-cultured fibroblast: 030F	96.9 ± 6	93 ± 13	94.1 ± 8.3	50.7 ± 23	15.3 ± 10	1.7 ± 2.6
carboplatin concentration 1000 nM, co-cultured fibroblast: WI38	107 ± 7.5	96.1 ± 12	86 ± 10	45.4 ± 31	14.6 ± 14	-0.251 ± 1.1
carboplatin concentration 1000 nM, co-cultured fibroblast: none (monoculture)	101 ± 4.5	111 ± 33	102 ± 42	63.4 ± 60	17.2 ± 28	-1.67 ± 3.8
carboplatin concentration 1e+05 nM, co-cultured fibroblast: 030F	23.2 ± 13	30.2 ± 16	32.9 ± 16	22.8 ± 10	15.3 ± 4.8	0.46 ± 0.81
carboplatin concentration 1e+05 nM, co-cultured fibroblast: WI38	10.6 ± 4.3	34.2 ± 13	33.1 ± 11	22.9 ± 10	13.3 ± 6	-0.83 ± 0.74
carboplatin concentration 1e+05 nM, co-cultured fibroblast: none (monoculture)	23.1 ± 5.3	57.5 ± 16	51.6 ± 20	24.6 ± 11	17.1 ± 15	-3.4 ± 2
carboplatin concentration 10000 nM, co-cultured fibroblast: 030F	52.3 ± 8.9	78.3 ± 22	64.7 ± 25	37.2 ± 17	19.1 ± 13	1.01 ± 1.3
carboplatin concentration 10000 nM, co-cultured fibroblast: WI38	41.6 ± 4.1	74.9 ± 15	68.8 ± 21	47.1 ± 19	19 ± 15	-0.481 ± 0.83
carboplatin concentration 10000 nM, co-cultured fibroblast: none (monoculture)	56.5 ± 10	89.7 ± 22	89.7 ± 37	65.2 ± 49	26.8 ± 33	-0.768 ± 5.4

From the supplement of paper PMC12420376
